Earlier results, collected in article PMC12435690, “KYLO-0603, a novel liver-targeting, thyroid hormone receptor-β agonist for the inhibition of MASH progression” (PLOS One, 2025).
“And” between values parts separate entries of the source, which are not always exact repeats. Identical values can stand only once.

Tested on: THR-β over THR-α
Set-up: method as in PMID 38771485, PMID 33306682, PMID 9653548, PMID 32098589
Conditions: in vitro THR competition assays ref [28],[47],[48],[49]; cited from earlier work

SMILES: CC(C)c1cc(Oc2c(Cl)cc(-n3nc(C#N)c(=O)[nH]c3=O)cc2Cl)n[nH]c1=O [Resmetirom]
- selectivity ratio for THR-β over THR-α: 12 and 17
